# Reference: patent publication US20250186391A1, “ORAL COMPLEMENT FACTOR D INHIBITORS” (BioCryst Pharmaceuticals, Inc., priority 2019, published 2025)
# Target: Factor D (Homo sapiens (Human), UniProt P00746)
# Experiment: Factor D esterolytic assay
# Assay type: biochemical
# Settings: Z-Lys-SBzl substrate, 100 mM HEPES, 500 mM NaCl, pH 7.5, 10% DMSO; tested a minimum of three times; read-out: Measured Ki (IC50) Value for Compounds: IC50
# In short: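 Chromogenic thioesterase read-out: Z-Lys-SBzl (1.29 mM) hydrolysis by human Factor D, thiol detected with DTNB at 405 nm (690 nm background subtracted) for 600 s. Run in 100 mM HEPES, 500 mM NaCl, pH 7.5, 10% DMSO, substrate added immediately or after room-temperature preincubation. IC50 from percent inhibition versus enzyme alone, n≥3.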
# Sequence of Factor D (P00746 26-253): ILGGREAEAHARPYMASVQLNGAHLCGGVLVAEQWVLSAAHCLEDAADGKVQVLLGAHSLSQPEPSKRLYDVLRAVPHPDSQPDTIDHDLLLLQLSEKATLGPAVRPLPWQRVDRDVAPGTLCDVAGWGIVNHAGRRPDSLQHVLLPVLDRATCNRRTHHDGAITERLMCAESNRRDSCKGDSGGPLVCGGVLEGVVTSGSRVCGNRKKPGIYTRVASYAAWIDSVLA
row,SMILES,IC50 [nM]
1,"Cc1ccc(CC(=O)O)c(OCc2c(C)oc3ccc(-c4cccc(CN)c4)cc23)c1 [Compound 131c, 2-(2-((5-(3-(aminomethyl)phenyl)-2-methylbenzofuran-3-yl)methoxy)-4-methylphenyl)acetic acid]",< 1000
2,"NCc1cccc(-c2ccc3oc(C4CC4)c(COc4ccccc4CC(=O)O)c3c2)c1 [Compound 133f, 2-(2-((5-(3-(aminomethyl)phenyl)-2-cyclopropylbenzofuran-3-yl)methoxy)phenyl)acetic acid]",< 1000
3,"Cc1nn(C)cc1-c1cc(-c2cccc(CN)c2)cc2c(COc3ccccc3CC(=O)O)coc12 [Compound 134c, 2-(2-((5-(3-(aminomethyl)phenyl)-7-(1,3-dimethyl-1H-pyrazol-4-yl)benzofuran-3-yl)methoxy)phenyl)acetic acid]",< 1000
4,"COc1ccc(CC(=O)O)c(OCc2c(C)oc3ccc(-c4cccc(CN)c4)cc23)c1 [Compound 138c, 2-(2-((5-(3-(aminomethyl)phenyl)-2-methylbenzofuran-3-yl)methoxy)-4-methoxyphenyl)acetic acid]",< 1000
5,"NCc1cccc(-c2ccc3oc(C(F)F)c(COc4ccccc4CC(=O)O)c3c2)c1 [Compound 139c, 2-(2-((5-(3-(aminomethyl)phenyl)-2-(difluoromethyl)benzofuran-3-yl)methoxy)phenyl)acetic acid]",< 1000
6,"NCc1cccc(-c2ccc3oc(C(O)C(F)(F)F)c(COc4ccccc4CC(=O)O)c3c2)c1 (centres unmarked) [Compound 140c, 2-(2-((5-(3-(aminomethyl)phenyl)-2-(2,2,2-trifluoro-1-hydroxyethyl)benzofuran-3-yl)methoxy)phenyl)acetic acid]",< 1000
7,"NCc1cccc(-c2ccc3occ(COc4c(CN)cccc4CC(=O)O)c3c2)c1 [Compound 145c, 2-(3-(aminomethyl)-2-((5-(3-(aminomethyl)phenyl)benzofuran-3-yl)methoxy)phenyl)acetic acid]",< 1000
8,"NCc1cccc(-c2cc(NCC3CCCC3)c3occ(COc4ccccc4CC(=O)O)c3c2)c1 [Compound 146d, 2-(2-((5-(3-(aminomethyl)phenyl)-7-((cyclopentylmethyl)amino)benzofuran-3-yl)methoxy)phenyl)acetic acid]",< 1000
9,"NCc1cccc(-c2cc(NCC3CCOC3)c3occ(COc4ccccc4CC(=O)O)c3c2)c1 (centres unmarked) [Compound 147d, 2-(2-((5-(3-(aminomethyl)phenyl)-7-(((tetrahydrofuran-3-yl)methyl)amino)benzofuran-3-yl)methoxy)phenyl)acetic acid]",< 1000
10,"CC(C)Nc1cc(-c2cccc(CN)c2)cc2c(COc3ccccc3CC(=O)O)coc12 [Compound 148d, 2-(2-((5-(3-(aminomethyl)phenyl)-7-(isopropylamino)benzofuran-3-yl)methoxy)phenyl)acetic acid]",< 1000
11,"CCNc1cc(-c2cccc(CN)c2)cc2c(COc3ccccc3CC(=O)O)coc12 [Compound 150d, 2-(2-((5-(3-(aminomethyl)phenyl)-7-(ethylamino)benzofuran-3-yl)methoxy)phenyl)acetic acid]",< 1000
12,"CNc1cc(-c2cccc(CN)c2)cc2c(COc3ccccc3CC(=O)O)coc12 [Compound 152d, 2-(2-((5-(3-(aminomethyl)phenyl)-7-(methylamino)benzofuran-3-yl)methoxy)phenyl)acetic acid]",< 1000
13,"NCc1cccc(-c2ccc3occ(COc4cc(CC5CC5)ccc4CC(=O)O)c3c2)c1 [Compound 153d, 2-(2-((5-(3-(aminomethyl)phenyl)benzofuran-3-yl)methoxy)-4-(cyclopropylmethyl)phenyl)acetic acid]",< 1000
14,"NCc1cccc(-c2cc(N3CCOCC3)c3occ(COc4ccccc4CC(=O)O)c3c2)c1 [Compound 154c, 2-(2-((5-(3-(aminomethyl)phenyl)-7-morpholinobenzofuran-3-yl)methoxy)phenyl)acetic acid]",< 1000

# More lines, now with the values ahead:
row,IC50 [nM],SMILES
1,< 1000,"CC(C)Cn1cc(-c2cc(-c3cccc(CN)c3)cc3c(COc4ccccc4CC(=O)O)coc23)cn1 [Compound 129c, 2-(2-((5-(3-(aminomethyl)phenyl)-7-(1-isobutyl-1H-pyrazol-4-yl)benzofuran-3-yl)methoxy)phenyl)acetic acid]"
2,< 1000,"CC(C)n1cc(-c2cc(-c3cccc(CN)c3)cc3c(COc4ccccc4CC(=O)O)coc23)cn1 [Compound 130c, 2-(2-((5-(3-(aminomethyl)phenyl)-7-(1-isopropyl-1H-pyrazol-4-yl)benzofuran-3-yl)methoxy)phenyl)acetic acid]"
3,< 1000,"NCc1cccc(-c2cc(/C=C/C3CC3)c3occ(COc4ccccc4CC(=O)O)c3c2)c1 [Compound 132d, (E)-2-(2-((5-(3-(aminomethyl)phenyl)-7-(2-cyclopropylvinyl)benzofuran-3-yl)methoxy)phenyl)acetic acid]"
4,< 1000,"NCc1cccc(-c2cc(-c3ccccc3)c3occ(COc4ccccc4CC(=O)O)c3c2)c1 [Compound 135c, 2-(2-((5-(3-(aminomethyl)phenyl)-7-phenylbenzofuran-3-yl)methoxy)phenyl)acetic acid]"
5,< 1000,"NCc1cccc(-c2cc(-c3c[nH]c4ccccc34)c3occ(COc4ccccc4CC(=O)O)c3c2)c1 [Compound 136d, 2-(2-((5-(3-(aminomethyl)phenyl)-7-(1H-indol-3-yl)benzofuran-3-yl)methoxy)phenyl)acetic acid]"
6,< 1000,"NCc1cccc(-c2cc(-c3cc4ccccc4[nH]3)c3occ(COc4ccccc4CC(=O)O)c3c2)c1 [Compound 137c, 2-(2-((5-(3-(aminomethyl)phenyl)-7-(1H-indol-2-yl)benzofuran-3-yl)methoxy)phenyl)acetic acid]"
7,< 1000,"CC(=O)c1oc2ccc(-c3cccc(CN)c3)cc2c1COc1ccccc1CC(=O)O [Compound 141c, 2-(2-((2-acetyl-5-(3-(aminomethyl)phenyl)benzofuran-3-yl)methoxy)phenyl)acetic acid]"
8,< 1000,"CC(C)c1oc2ccc(-c3cccc(CN)c3)cc2c1COc1ccccc1CC(=O)O [Compound 142e, 2-(2-((5-(3-(aminomethyl)phenyl)-2-isopropylbenzofuran-3-yl)methoxy)phenyl)acetic acid]"
9,< 1000,"NCc1cccc(-c2cc(COc3ccc(F)cc3)c3occ(COc4ccccc4CC(=O)O)c3c2)c1 [Compound 143f, 2-(2-((5-(3-(aminomethyl)phenyl)-7-((4-fluorophenoxy)methyl)benzofuran-3-yl)methoxy)phenyl)acetic acid]"
10,< 1000,"NCc1cccc(-c2ccc3c(c2)c(COc2ccccc2CC(=O)O)nn3-c2ccccc2)c1 [Compound 144h, 2-(2-((5-(3-(aminomethyl)phenyl)-1-phenyl-1H-indazol-3-yl)methoxy)phenyl)acetic acid]"
11,< 1000,"NCc1cccc(-c2cc(NCC3CCCO3)c3occ(COc4ccccc4CC(=O)O)c3c2)c1 (centres unmarked) [Compound 149d, 2-(2-((5-(3-(aminomethyl)phenyl)-7-(((tetrahydrofuran-2-yl)methyl)amino)benzofuran-3-yl)methoxy)phenyl)acetic acid]"
12,< 1000,"CC(C)CNc1cc(-c2cccc(CN)c2)cc2c(COc3ccccc3CC(=O)O)coc12 [Compound 151d, 2-(2-((5-(3-(aminomethyl)phenyl)-7-(isobutylamino)benzofuran-3-yl)methoxy)phenyl)acetic acid]"
